Experimental data as given in patent US20240398781A1, “SPIROCYCLIC CYCLIC MODULATORS OF CHOLESTEROL BIOSYNTHESIS AND THEIR USE FOR PROMOTING REMYELINATION” (GENENTECH, INC., priority 2021, published 2024).
Like-named read-outs stand apart in the source and are kept apart here.

What was measured:
[1] = target: human emopamil binding protein and human 7-dehydrocholesterol reductase co-expressing cells (hEBP-DHCR7 membrane) (Homo sapiens (Human), UniProt Q15125); test: Radioligand filter binding assay on hEBP-DHCR7 membrane; conditions: [3H]-(S)-6-(2-Methyl-3-(6-(trifluoromethyl)pyridin-3-yl)propyl)-2-thia-6-azaspiro[3.4]octane 2,2-dioxide radioligand, HEK293 membrane co-expressing hEBP and hDHCR7
Chain of human emopamil binding protein and human 7-dehydrocholesterol reductase co-expressing cells (hEBP-DHCR7 membrane) (Q15125 whole entry): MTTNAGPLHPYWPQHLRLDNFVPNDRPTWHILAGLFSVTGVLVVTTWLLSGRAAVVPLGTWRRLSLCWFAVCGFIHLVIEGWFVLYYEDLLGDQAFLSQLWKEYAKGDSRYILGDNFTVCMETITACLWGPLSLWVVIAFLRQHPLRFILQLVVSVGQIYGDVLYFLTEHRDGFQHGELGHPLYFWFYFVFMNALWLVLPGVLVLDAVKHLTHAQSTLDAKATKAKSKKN
How it was run: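 HEK293 cells transiently co-expressing human EBP and DHCR7 supplied whole-cell membranes (10 μg/well), incubated 3 h at 22 °C with [3H]-labelled spiro-octane dioxide ligand (added at 25 nM) and compound (0.06-5000 nM final, 8 doses, n=2). Bound ligand was collected on PEI-treated GF/B filters and counted by scintillation. IC50 was Hill-fitted from % inhibition and reported as Ki.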

[2] = system: EBP (zymostenol accumulation in EpiSC-derived OPCs); test: GC/MS-based sterol profiling, zymostenol accumulation in OPCs; format: cell-based, mouse; conditions: EpiSC-derived OPCs, 24 hr treatment, 8 doses from 0.15 nM to 333 nM, read-out: Zymostenol GCMS EC50
How it was run: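 EpiSC-derived OPCs (100,000/well) were treated 24 h in N2B27 without growth factors. Sterols were TMS-derivatized and analysed by GC/MS full-scan EI, quantified against cholesterol-d7. Zymostenol was normalized to the level after 24 h with 100 nM positive control reference.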

EpiSC-derived OPCs = test: In vitro phenotypic screening of OPCs (MBP staining, high-content imaging); format: cell-based, mouse; conditions: percentage of MBP+ oligodendrocytes, 3 days, 0.5 nM to 1000 nM, read-out: OPC EC50
Procedure: To assess effects of treatments on OPCs, all treatments were assayed in two or more independent platings of epiblast stem cell-derived OPCs (EpiSC). EpiSC-derived OPCs were obtained using in vitro differentiation protocols and culture conditions described previously (Najm et al, 2011, Nature Methods). OPCs were expanded and frozen down in aliquots. OPCs were thawed into growth conditions for at least one passage before use in further assays.
EpiSC-derived OPCs were grown and expanded in poly-L-ornithine (PO) and laminin-coated flasks in N2B27 media (DMEM/F12 (Gibco), N2-MAX (R&D Systems), B-27 (ThermoFisher), and GlutaMax (Gibco)) supplemented with FGF2 ([…], R&D systems, 233-FB-025) and PDGF-AA ([…], R&D systems, 233-AA-050) before harvesting for experiments. The cells were seeded onto poly-L-ornithine or poly-D-lysine coated CellCarrier Ultra plates (PerkinElmer) coated with laminin (Sigma, L2020) at a density of 150,000/cm^2 in N2B27 media without growth factors. For dose-response testing, a 1000× compound stock in dimethyl sulphoxide (DMSO) was added to assay plates, resulting in 8-point dose curves with final concentrations between 1000 nM and 0.5 nM. Positive controls and DMSO vehicle controls were included in each assay plate. Cells were incubated under standard conditions (37° C., 5% CO2) for 3 days and fixed with 4% paraformaldehyde (PFA) in phosphate buffered saline (PBS) for 20 min. Fixed plates were washed with PBS, permeabilized with 0.1% Triton X-100, and blocked with 10% donkey serum (v/v) in PBS for 40 min. Then, cells were labelled with MBP antibodies (Abcam, ab7349; 1:200) for 2 h at room temperature, washed with PBS, and stained with Alexa Fluor conjugated secondary antibodies (1:500) for 45 min. Nuclei were visualized by DAPI staining (Sigma; 1 μg/ml), followed by further PBS washes.
Cells and cell culture plates were imaged on the Operetta High Content Imaging and Analysis system (PerkinElmer). Analysis (PerkinElmer Harmony and Columbus software) began by identifying intact nuclei stained by DAPI. The peri-nuclear region of each cell was then cross-referenced with the mature myelin protein (MBP) stain to identify oligodendrocyte nuclei, and from this the percentage of oligodendrocytes was calculated. EC50 values were calculated using The Levenberg-Marquardt algorithm to fit a Hill equation to dose-response data (0.5 nM to 1000 nM).

| Ki [1] [nM] | EC50 ([2]; Mus musculus, 24 h) [nM] | EC50 (EpiSC-derived OPCs; Mus musculus, 72 h) [nM] | EC50 (EpiSC-derived OPCs) [nM] | EC50 [2] [nM] | SMILES |
| --- | --- | --- | --- | --- | --- |
| 31 | 7.5 | 53 |  |  | CC(C)n1nc(C(F)(F)F)cc1[C@@H]1CCC[C@H](N2CCC3(C2)CS(=O)(=O)C3)C1 (single isomer, unassigned) [61C*] |
| 41 | 5.8 | 22 |  |  | O=S1(=O)CC[C@@]2(CCCN([C@H]3CC[C@H](c4ccc(C(F)(F)F)cn4)CC3)C2)C1 (single isomer, unassigned) [68B*] |
| 24 | 2.1 | 7.5 |  |  | O=S1(=O)CC[C@@]2(CCCN([C@H]3CC[C@@H](c4cc(C(F)(F)F)nn4C4CC4)CC3)C2)C1 (single isomer, unassigned) [69A*] |
| 27 | 6 | 44 |  |  | O=S1(=O)CC[C@]2(CCCN([C@H]3CC[C@@H](c4cc(C(F)(F)F)nn4C4CC4)CC3)C2)C1 (single isomer, unassigned) [69C*] |
| 26 | 22 | 140 |  |  | CC(C)n1nc(C(F)(F)F)cc1[C@@H]1CCC[C@H](N2CCC3(CC2)CS(=O)(=O)C3)C1 (single isomer, unassigned) [78B*] |
| 790 | 28 | 273 |  |  | CC(C)n1nc(C(F)(F)F)cc1[C@H]1CCC[C@@H](N2CCC3(CC2)CS(=O)(=O)C3)C1 (single isomer, unassigned) [78C*] |
| 37 | 19 | 124 |  |  | CC(C)n1nc(C(F)(F)F)cc1[C@H]1CCC[C@H](N2CCC3(CC2)CS(=O)(=O)C3)C1 (single isomer, unassigned) [78D*] |
| 1180 | 88 | 190 |  |  | O=S1(=O)CC2(CCN(C3CC[C@H](c4nc(-c5cccc(C(F)(F)F)n5)nn4C4CC4)C3)CC2)C1 (stereo in doubt) [42C*, 7-((1S,3S)-3-(1-Cyclopropyl-3-(6-(trifluoromethyl)pyridin-2-yl)-1H-1,2,4-triazol-5-yl)cyclopentyl)-2-thia-7-azaspiro[3.5]nonane 2,2-dioxide] |
| 670 | 45 | 120 |  |  | O=S1(=O)CC2(CCN(C3CC[C@H](c4nc(-c5cccc(C(F)(F)F)n5)nn4C4CC4)C3)CC2)C1 (stereo in doubt) [42D*, 7-((1R,3S)-3-(1-Cyclopropyl-3-(6-(trifluoromethyl)pyridin-2-yl)-1H-1,2,4-triazol-5-yl)cyclopentyl)-2-thia-7-azaspiro[3.5]nonane 2,2-dioxide] |
| 470 | 42 | 270 |  |  | O=S1(=O)CC2(CCN([C@H]3CC[C@@H](c4ccc(C(F)(F)F)nc4)CC3)CC2)C1 [81B*, 7-((1s,4s)-4-(6-(Trifluoromethyl)pyridin-3-yl)cyclohexyl)-2-thia-7-azaspiro[3.5]nonane 2,2-dioxide] |
| 69 | 27 | 130 |  |  | O=S1(=O)CCC2(CCN([C@H]3CC[C@H](c4ccc(C(F)(F)F)cn4)CC3)C2)CC1 [84B*, 2-((1s,4s)-4-(5-(Trifluoromethyl)pyridin-2-yl)cyclohexyl)-8-thia-2-azaspiro[4.5]decane 8,8-dioxide] |

Second part, the compound before the results:

| SMILES | Ki [1] [nM] | EC50 ([2]; Mus musculus, 24 h) [nM] | EC50 (EpiSC-derived OPCs; Mus musculus, 72 h) [nM] | EC50 (EpiSC-derived OPCs) [nM] | EC50 [2] [nM] |
| --- | --- | --- | --- | --- | --- |
| O=S1(=O)CC2(CCN([C@@H]3CCC[C@H](c4ccc(C(F)(F)F)nc4)C3)CC2)C1 (single isomer, unassigned) [56A*] | 61 | 30 | 270 |  |  |
| O=S1(=O)CC2(CCN([C@H]3CCC[C@H](c4ccc(C(F)(F)F)nc4)C3)CC2)C1 (single isomer, unassigned) [56B*] | 170 | 320 | 870 |  |  |
| O=S1(=O)CC2(CCN([C@H]3CCC[C@@H](c4ccc(C(F)(F)F)nc4)C3)CC2)C1 (single isomer, unassigned) [56C*] | 140 | 19 | 76 |  |  |
| O=S1(=O)CC2(CCN([C@@H]3CCC[C@@H](c4ccc(C(F)(F)F)nc4)C3)CC2)C1 (single isomer, unassigned) [56D*] | 65 | 150 | 690 |  |  |
| O=S1(=O)CC2(CCN([C@@H]3CC[C@@H](c4ccc(C(F)(F)F)nc4)C3)CC2)C1 (single isomer, unassigned) [57A*] | 160 | 24 |  | 65 |  |
| O=S1(=O)CC2(CCN([C@@H]3CC[C@@H](c4ccc(C(F)(F)F)nc4)C3)CC2)C1 (single isomer, unassigned) [57B*] | 200 |  |  | 160 | 44 |
| O=S1(=O)CC2(CCN([C@@H]3CC[C@H](c4ccc(C(F)(F)F)nc4)C3)CC2)C1 (single isomer, unassigned) [57C*] | 120 | 16 | 53 |  |  |
| O=S1(=O)CC2(CCN([C@H]3CC[C@H](c4ccc(C(F)(F)F)nc4)C3)CC2)C1 (single isomer, unassigned) [57D*] | 150 | 18 | 130 |  |  |
| CCn1nc(-c2ccc(C(F)(F)F)nc2)nc1[C@H]1CC[C@H](N2CCC3(CC2)CS(=O)(=O)C3)CC1 (stereo in doubt) [43A*, (trans)-7-(-4-(1-Ethyl-3-(6-(trifluoromethyl)pyridin-3-yl)-1H-1,2,4-triazol-5-yl)cyclohexyl)-2-thia-7-azaspiro[3.5]nonane 2,2-dioxide] | 125 | 8 | 27 |  |  |
| CCn1nc(-c2ccc(C(F)(F)F)nc2)nc1[C@H]1CC[C@@H](N2CCC3(CC2)CS(=O)(=O)C3)CC1 (stereo in doubt) [43B*, (cis)-7-(-4-(1-ethyl-3-(6-(trifluoromethyl)pyridin-3-yl)-1H-1,2,4-triazol-5-yl)cyclohexyl)-2-thia-7-azaspiro[3.5]nonane 2,2-dioxide] | 510 | 80 | 160 |  |  |
| CC(C)n1nc(-c2ccc(C(F)(F)F)cc2)nc1[C@H]1CCC(N2CCC3(CC2)CS(=O)(=O)C3)C1 (stereo in doubt) [Compound 58A, 7-((1R,3S)-3-(1-Isopropyl-3-(4-(trifluoromethyl)phenyl)-1H-1,2,4-triazol-5-yl)cyclopentyl)-2-thia-7-azaspiro[3.5]nonane 2,2-dioxide] | 22 | 4.4 | 7.3 |  |  |
| CC(C)n1nc(-c2ccc(C(F)(F)F)cc2)nc1[C@H]1CCC(N2CCC3(CC2)CS(=O)(=O)C3)C1 (stereo in doubt) [Compound 58B, 7-((1S,3S)-3-(1-isopropyl-3-(4-(trifluoromethyl)phenyl)-1H-1,2,4-triazol-5-yl)cyclopentyl)-2-thia-7-azaspiro[3.5]nonane 2,2-dioxide] | 21 | 2.3 | 3.4 |  |  |
| O=S1(=O)CC2(CCN([C@H]3CC[C@@H](c4ccc(C(F)(F)F)cc4)C3)C2)C1 [Compound 1A, 6-((1S,3R)-3-(4-(trifluoromethyl)phenyl)cyclopentyl)-2-thia-6-azaspiro[3.4]octane 2,2-dioxide] | 14.8 | 4.9 | 17 |  |  |
| O=S1(=O)CC2(CCN([C@@H]3CC[C@H](c4ccc(C(F)(F)F)cc4)C3)C2)C1 [Compound 1C, 6-((1R,3S)-3-(4-(trifluoromethyl)phenyl)cyclopentyl)-2-thia-6-azaspiro[3.4]octane 2,2-dioxide] | 11 | 1.4 | 1.8 |  |  |
| O=S1(=O)CC2(CCN([C@H]3CC[C@H](c4ccc(C(F)(F)F)cc4)C3)C2)C1 [Compound 1D, 6-((1S,3S)-3-(4-(trifluoromethyl)phenyl)cyclopentyl)-2-thia-6-azaspiro[3.4]octane 2,2-dioxide] | 15 | 4.9 | 18 |  |  |
